In patent publication US20050129662A1 (priority 2002, published 2005):

Experiments:
Type in all cases: in vivo
[1] = tested on: peronospora (Plasmopara viticola); experiment: Open-field fight against peronospora on muscat vine (Examples 2-6); settings: 11 interventions
From the text: (§1) All tables and related theses reproduced herein result from an experimental activity carried out in the open field following precise protocols and experimental guidelines.
(§2) The aim of this experimental activity was that of verifying the possibility of reducing the amount of the chemical formulation employed, while keeping the activity of same unchanged towards adversities to be fought (peronospora, mildew and Panonychus ulmi), thanks to addition of the adjuvant, preferably soybean oil.
(§3) The methodologies for detection of the efficiency results were selected depending on: the pathology to be fought, infection, % spreading of the disease for peronospora, mildew and acid rot, and depending on the count of the mite number per leaf in the fight tests against Panonychus ulmi.
(§4) Among the great number of statistical tests interpreting the experimental data items, Duncan test in the scientific field is considered as one of the best evaluation instruments for significance of the experimental data items. […] Example: 12.5a 0.9b 0.3b

[2] = tested on: Lactuga sativa; experiment: Composite chemical weedkilling, spraying on trays of lettuce plants (Examples 12-15); settings: 1 intervention; for % devitalization T + 14: 14 days from treatment; for % devitalization T + 27: 27 days from treatment
From the text: • Treatment: 300 l/ha of solution were sprayed • Experimental pattern: spraying on 4 trays, each containing 8 lettuce plants • Flower survey: carried out after 14 days from treatment (T), (T+14), and after 27 days (T+27), stating the devitalization degree in percentage
Test target: Composite chemical weedkilling (Lactuga sativa)
With reference to the active ingredients employed in examples 12-15, it was an aim of this experimental research to verify the influence of the emulsion addition on the herbicide activity towards a target weed belonging to the compositae family. By virtue of the high herbicide activity of weedkillers, when applied in the amounts on the label, and in order to highlight possible efficiency variations of same among the different theses dealt with, all active ingredients were employed alone in amounts reduced by ⅓ and reduced by ⅓ in an extemporaneous mixture with the emulsion being the object of the present invention. Example: should the active ingredients have been employed to the amounts reproduced on the label, it would have been very likely to obtain a 100% devitalization of the weed with the active ingredient alone and in a mixture with the emulsion.
As to the methodologies for efficiency detection, a visual estimation was selected, by allocating a % value to the overall devitalizing activity observed on the target plant.

[3] = tested on: Panonychus ulmi; experiment: Open-field fight against Panonychus ulmi on muscat vine (Examples 8-10); settings: 1 intervention
From the text: as §1, §2, §3, §4

[4] = tested on: mildew (Uncinula necator); settings: muscat vine; 4795 g or ml/ha; 6 interventions

Question: What does the source list for CO/C=C(/C(=O)OC)c1ccccc1Oc1cc(Oc2ccccc2C#N)ncn1 [Azoxystrobin]?
Answer: % infection on bunches ([1]; 250 g or ml/ha): 0.0 b %; % spreading on bunches ([1]; 250 g or ml/ha): 0.0 b %; Action Degree ([1]; 250 g or ml/ha): 100

Question: CCCCCCCC(=O)Oc1c(Br)cc(C#N)cc1Br [Bromoxynil octanoate] was tested. Which “% devitalization T + 14” value ([2]; 356 g or ml/ha) did it give?
Answer: Its value is 56.0%.

Question: What about the “% devitalization T + 27” value ([2]; 356 g or ml/ha) of the same molecule?
Answer: The value was 67.5%.

Question: Which results are given for O=C(O)c1nc(Cl)ccc1Cl [Clopyradil]?
Answer: % devitalization T + 14 ([2]; 100 g or ml/ha): 85.0%; % devitalization T + 27 ([2]; 100 g or ml/ha): 87.5%

Question: COc1ccc(C(=CC(=O)N2CCOCC2)c2ccc(Cl)cc2)cc1OC [Dimethomorph] was tested. Which “% infection on bunches” value ([1]; 1050 g or ml/ha) did it give?
Answer: The value was 0.0 b %.

Question: What about the “% spreading on bunches” value ([1]; 1050 g or ml/ha) of the same molecule?
Answer: Its value is 0.0 b %.

Question: And the “Action Degree” value ([1]; 1050 g or ml/ha)?
Answer: Its value is 100.

Question: O=C(NC(=O)c1c(F)cccc1F)Nc1ccc(Oc2ccc(C(F)(F)F)cc2Cl)cc1F [Flufenoxuron] was tested. Which “Action Degree” value ([3]; 50 g or ml/ha) did it give?
Answer: The value was 68.0.

Question: What about the “Mites per leaf 1” value ([3]; 50 g or ml/ha) of the same molecule?
Answer: The value was 1.1 b.

Question: And the “Mites per leaf 2” value ([3]; 50 g or ml/ha)?
Answer: Its value is 3.0 b.

Question: Which “% infection on bunches” value ([1]; 1200 g or ml/ha) does the source give for O=C1c2ccccc2C(=O)N1SC(Cl)(Cl)Cl [Folpet] here?
Answer: The value was 0.0 b %.

Question: What about the “% spreading on bunches” value ([1]; 1200 g or ml/ha) of the same molecule?
Answer: Its value is 0.0 b %.

Question: And the “Action Degree” value ([1]; 1200 g or ml/ha)?
Answer: The value was 100.

Question: How did the “% devitalization T + 14” value ([2]; 360 g or ml/ha) turn out when O=C(O)CNCP(=O)(O)O [Gliphosate] was run?
Answer: The value was 32.0%.

Question: What about the “% devitalization T + 27” value ([2]; 360 g or ml/ha) of the same molecule?
Answer: The value was 90.0%.

Question: Which results are given for C[C@@H]1[C@@H](c2ccc(Cl)cc2)SC(=O)N1C(=O)NC1CCCCC1 [Hexythiazox]?
Answer: Action Degree ([3]; f.c. 30 g or ml/ha): 91.6; Mites per leaf 1 ([3]; f.c. 30 g or ml/ha): 0.0 b; Mites per leaf 2 ([3]; f.c. 30 g or ml/ha): 0.6 b

Question: For O=c1[nH]c2c(c(=O)n1C1CCCCC1)CCC2 [Lenacil], which “% devitalization T + 14” value ([2]; 150 g or ml/ha) is on record?
Answer: The value was 11.0%.

Question: What about the “% devitalization T + 27” value ([2]; 150 g or ml/ha) of the same molecule?
Answer: Its value is 30.0%.

Question: S1SSSSSSS1 [Sulphur] was tested. Which “% infection on bunches” value [4] did it give?
Answer: The value was 2.2 b %.

Question: What about the “% spreading on bunches” value [4] of the same molecule?
Answer: The value was 12.5 bd %.

Question: And the “Action Degree” value [4]?
Answer: Its value is 85.7.

Question: Which results are given for CCc1nn(C)c(C(=O)NCc2ccc(C(C)(C)C)cc2)c1Cl [Tebufenpyrad]?
Answer: Action Degree ([3]; 125 g or ml/ha): 80.8; Mites per leaf 1 ([3]; 125 g or ml/ha): 0.4 b; Mites per leaf 2 ([3]; 125 g or ml/ha): 1.1 b

Question: What does the source list for Fosetyl-Aluminium?
Answer: % infection on bunches ([1]; 960 g or ml/ha): 0.3 b %; % spreading on bunches ([1]; 960 g or ml/ha): 0.8 b %; Action Degree ([1]; 960 g or ml/ha): 87.2

Question: How did the “% infection on bunches” value ([1]; 1470 g or ml/ha) turn out when Mancozeb was run?
Answer: Its value is 0.2 b %.

Question: What about the “% spreading on bunches” value ([1]; 1470 g or ml/ha) of the same molecule?
Answer: Its value is 0.3 b %.

Question: What about the “Action Degree” value ([1]; 1470 g or ml/ha) of the same molecule?
Answer: The value was 97.4.
